Columns and labels:
Rho kinase 2 (ROCK-II) = Rho kinase 2 (ROCK-II) (Homo sapiens, UniProt O75116); assay: In vitro Rho kinase inhibitory activity assay (ADP-Glo), Rho kinase 2; format: biochemical; conditions: 10 μM ATP, 25° C., expressed as range of activity
Summary of the method: (§1)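 Each kinase (ROCK1 or ROCK2) sat with compound for 30 min at 25 °C before 10 μM ATP started a 1 h reaction on 2.5 μM myelin basic protein (Tris pH 7.5, MgCl2, BSA, DTT, 1% DMSO). ADP formed was read by ADP-Glo luminescence. Dose-response IC50s were converted to Ki by Cheng-Prusoff.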

Rho kinase 1 (ROCK-I) = Rho kinase 1 (ROCK-I) (Homo sapiens, UniProt Q13464); assay: In vitro Rho kinase inhibitory activity assay (ADP-Glo), Rho kinase 1; format: biochemical; conditions: 10 μM ATP, 25° C., expressed as range of activity
Rho kinase 1 (ROCK-I), sequence (Q13464 whole entry): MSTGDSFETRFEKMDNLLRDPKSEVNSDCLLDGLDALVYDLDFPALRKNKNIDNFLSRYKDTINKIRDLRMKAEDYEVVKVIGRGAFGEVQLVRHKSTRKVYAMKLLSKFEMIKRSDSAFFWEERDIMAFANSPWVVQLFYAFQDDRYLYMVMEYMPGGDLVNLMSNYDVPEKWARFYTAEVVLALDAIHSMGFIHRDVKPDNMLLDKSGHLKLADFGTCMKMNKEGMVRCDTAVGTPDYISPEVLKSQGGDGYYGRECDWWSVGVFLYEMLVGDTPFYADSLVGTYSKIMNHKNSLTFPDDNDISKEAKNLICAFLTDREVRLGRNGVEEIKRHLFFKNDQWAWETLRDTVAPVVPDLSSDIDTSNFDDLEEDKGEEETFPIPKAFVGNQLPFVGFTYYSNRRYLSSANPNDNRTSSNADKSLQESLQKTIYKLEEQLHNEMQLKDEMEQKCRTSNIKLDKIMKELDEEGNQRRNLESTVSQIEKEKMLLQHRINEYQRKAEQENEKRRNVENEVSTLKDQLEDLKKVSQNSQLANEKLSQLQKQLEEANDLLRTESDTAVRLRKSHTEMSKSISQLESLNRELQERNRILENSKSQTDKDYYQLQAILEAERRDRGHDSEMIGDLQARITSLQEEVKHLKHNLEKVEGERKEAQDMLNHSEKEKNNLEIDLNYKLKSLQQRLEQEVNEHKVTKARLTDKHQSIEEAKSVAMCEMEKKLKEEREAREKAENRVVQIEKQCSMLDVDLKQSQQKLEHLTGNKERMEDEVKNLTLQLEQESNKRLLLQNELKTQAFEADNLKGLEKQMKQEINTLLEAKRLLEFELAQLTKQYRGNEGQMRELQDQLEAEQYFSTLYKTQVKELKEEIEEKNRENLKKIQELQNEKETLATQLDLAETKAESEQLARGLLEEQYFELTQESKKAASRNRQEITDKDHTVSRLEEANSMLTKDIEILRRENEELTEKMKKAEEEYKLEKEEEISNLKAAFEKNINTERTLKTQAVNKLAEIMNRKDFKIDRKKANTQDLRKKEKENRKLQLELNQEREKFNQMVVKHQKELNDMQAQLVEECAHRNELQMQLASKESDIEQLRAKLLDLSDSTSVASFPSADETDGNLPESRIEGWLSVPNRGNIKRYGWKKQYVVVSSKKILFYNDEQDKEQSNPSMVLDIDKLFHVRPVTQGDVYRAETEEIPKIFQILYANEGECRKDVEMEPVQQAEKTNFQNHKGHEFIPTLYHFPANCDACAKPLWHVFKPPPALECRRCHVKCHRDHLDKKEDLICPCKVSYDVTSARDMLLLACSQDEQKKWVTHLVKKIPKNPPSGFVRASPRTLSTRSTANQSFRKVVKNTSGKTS
Summary of the method: as §1

Rho kinase 2 (ROCK-II), sequence (O75116 whole entry): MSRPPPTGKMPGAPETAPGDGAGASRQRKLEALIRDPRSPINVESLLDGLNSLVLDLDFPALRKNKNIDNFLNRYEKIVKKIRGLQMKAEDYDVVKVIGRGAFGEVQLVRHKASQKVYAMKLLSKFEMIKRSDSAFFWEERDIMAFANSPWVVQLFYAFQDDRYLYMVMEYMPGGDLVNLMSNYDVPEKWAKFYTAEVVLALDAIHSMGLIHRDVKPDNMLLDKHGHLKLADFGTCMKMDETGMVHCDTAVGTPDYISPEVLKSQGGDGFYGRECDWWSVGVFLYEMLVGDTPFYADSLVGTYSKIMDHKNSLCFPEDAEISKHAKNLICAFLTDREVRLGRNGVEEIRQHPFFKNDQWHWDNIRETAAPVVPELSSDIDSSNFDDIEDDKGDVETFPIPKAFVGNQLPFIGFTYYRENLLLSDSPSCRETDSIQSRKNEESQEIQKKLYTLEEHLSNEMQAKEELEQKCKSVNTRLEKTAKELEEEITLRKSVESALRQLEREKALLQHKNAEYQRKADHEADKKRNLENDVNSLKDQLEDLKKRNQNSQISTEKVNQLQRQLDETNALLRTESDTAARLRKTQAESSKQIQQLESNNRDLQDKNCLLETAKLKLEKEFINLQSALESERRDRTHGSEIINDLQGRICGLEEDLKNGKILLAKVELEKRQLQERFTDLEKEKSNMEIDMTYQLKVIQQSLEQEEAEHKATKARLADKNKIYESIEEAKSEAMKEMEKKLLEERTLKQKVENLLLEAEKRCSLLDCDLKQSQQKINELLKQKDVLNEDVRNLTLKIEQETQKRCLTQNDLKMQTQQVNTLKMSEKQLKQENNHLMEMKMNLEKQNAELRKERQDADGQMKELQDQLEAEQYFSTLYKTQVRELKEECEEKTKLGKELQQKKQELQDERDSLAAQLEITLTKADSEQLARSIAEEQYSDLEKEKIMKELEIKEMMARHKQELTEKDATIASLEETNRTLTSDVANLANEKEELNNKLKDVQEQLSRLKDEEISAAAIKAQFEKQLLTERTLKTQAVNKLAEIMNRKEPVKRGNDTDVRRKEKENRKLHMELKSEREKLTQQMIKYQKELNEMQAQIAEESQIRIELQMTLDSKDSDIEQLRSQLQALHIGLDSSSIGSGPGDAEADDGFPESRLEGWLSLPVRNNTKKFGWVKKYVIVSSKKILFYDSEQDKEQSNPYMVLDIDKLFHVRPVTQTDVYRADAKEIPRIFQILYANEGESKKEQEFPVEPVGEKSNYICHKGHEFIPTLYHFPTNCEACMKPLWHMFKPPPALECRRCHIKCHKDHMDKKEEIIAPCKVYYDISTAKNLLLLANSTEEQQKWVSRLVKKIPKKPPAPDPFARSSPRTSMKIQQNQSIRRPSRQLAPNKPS

SMILES: Cc1c[nH]c2nccc(Oc3ccc(C[C@H](N)C(=O)N4CCOC(c5ccccc5)C4)cc3F)c12 (mixture of isomers) [Example 4, (2S)-2-amino-3-(3-fluoro-4-((3-methyl-1H-pyrrolo[2,3-b]pyridin-4-yl)oxy)phenyl)-1-(2-phenylmorpholino)propan-1-one]
- Ki (Rho kinase 2 (ROCK-II)): < 3 nM
- Ki (Rho kinase 1 (ROCK-I)): < 3 nM

SMILES: Cc1c[nH]c2nccc(Oc3ccc(CC(N)C(=O)NC4Cc5ccccc5C4)cc3F)c12 (centres unmarked) [Example 63, 2-amino-N-(2,3-dihydro-1H-inden-2-yl)-3-(3-fluoro-4-((3-methyl-1H-pyrrolo[2,3-b]pyridin-4-yl)oxy)phenyl)propanamide]
- Ki (Rho kinase 2 (ROCK-II)): < 3 nM
- Ki (Rho kinase 1 (ROCK-I)): < 3 nM

SMILES: Cc1c[nH]c2nccc(Oc3ccc(C[C@H](N)C(=O)N4CCN(S(=O)(=O)c5ccccc5)CC4)cc3F)c12 [Example 22, (S)-2-amino-3-(3-fluoro-4-((3-methyl-1H-pyrrolo[2,3-b]pyridin-4-yl)oxy)phenyl)-1-(4-(phenylsulfonyl)piperazin-1-yl)propan-1-one]
- Ki (Rho kinase 2 (ROCK-II)): < 3 nM
- Ki (Rho kinase 1 (ROCK-I)): < 3 nM

SMILES: N[C@@H](Cc1ccc(Oc2ccnc3[nH]cc(Br)c23)c(F)c1)C(=O)N1CCN(Cc2ccccc2)CC1 [Example 187, (S)-2-amino-1-(4-benzylpiperazin-1-yl)-3-(4-((3-bromo-1H-pyrrolo[2,3-b]pyridin-4-yl)oxy)-3-fluorophenyl)propan-1-one]
- Ki (Rho kinase 2 (ROCK-II)): < 3 nM
- Ki (Rho kinase 1 (ROCK-I)): < 3 nM

SMILES: Cc1c[nH]c2nccc(Oc3ccc(C[C@H](N)C(=O)N4CCN(Cc5cnc6ccccc6n5)CC4)cc3F)c12 [Example 159, (S)-2-amino-3-(3-fluoro-4-((3-methyl-1H-pyrrolo[2,3-b]pyridin-4-yl)oxy)phenyl)-1-(4-(quinoxalin-2-ylmethyl)piperazin-1-yl)propan-1-one]
- Ki (Rho kinase 2 (ROCK-II)): < 3 nM
- Ki (Rho kinase 1 (ROCK-I)): < 3 nM

SMILES: COCCCNC(=O)[C@@H](N)Cc1ccc(Oc2ccnc3[nH]cc(C)c23)cc1 [Example 87, (S)-2-amino-N-(3-methoxylpropyl)-3-(4-((3-methyl-1H-pyrrolo[2,3-b]pyridin-4-yl)oxy)phenyl)propanamide]
- Ki (Rho kinase 2 (ROCK-II)): < 3 nM
- Ki (Rho kinase 1 (ROCK-I)): < 3 nM

SMILES: COCCCNC(=O)C(N)Cc1ccc(Oc2ccnc3[nH]cc(C)c23)c(F)c1 (centres unmarked) [Example 68, 2-amino-3-(3-fluoro-4-((3-methyl-1H-pyrrolo[2,3-b]pyridin-4-yl)oxy)phenyl)-N-(3-methoxypropyl)propanamide]
- Ki (Rho kinase 2 (ROCK-II)): < 3 nM
- Ki (Rho kinase 1 (ROCK-I)): < 3 nM

SMILES: Cc1c[nH]c2nccc(Oc3ccc(CC(N)C(=O)Nc4cccnc4)cc3F)c12 (centres unmarked) [Example 70, 2-amino-3-(3-fluoro-4-((3-methyl-1H-pyrrolo[2,3-b]pyridin-4-yl)oxy)phenyl)-N-(pyridin-3-yl)propanamide]
- Ki (Rho kinase 2 (ROCK-II)): < 3 nM
- Ki (Rho kinase 1 (ROCK-I)): < 3 nM

SMILES: Cc1c[nH]c2nccc(Oc3ccc(C[C@H](N)C(=O)N4C[C@@H](C)N(Cc5ccccc5)[C@@H](C)C4)cc3F)c12 [Example 26, (S)-2-amino-1-((3S,5R)-4-benzyl-3,5-dimethylpiperazin-1-yl)-3-(3-fluoro-4-((3-methyl-1H-pyrrolo[2,3-b]pyridin-4-yl)oxy)phenyl)propan-1-one]
- Ki (Rho kinase 2 (ROCK-II)): < 3 nM
- Ki (Rho kinase 1 (ROCK-I)): < 3 nM

SMILES: Cc1c[nH]c2nccc(Oc3ccc(C[C@H](N)C(=O)N4CCN5CCOCC5C4)cc3F)c12 (stereo partly drawn) [Example 16, (2S)-2-amino-3-(3-fluoro-4-((3-methyl-1H-pyrrolo[2,3-b]pyridin-4-yl)oxy)phenyl)-1-(hexahydropyrazino[2,1-c][1,4]oxazin-8(1H)-yl)propan-1-one]
- Ki (Rho kinase 2 (ROCK-II)): < 3 nM
- Ki (Rho kinase 1 (ROCK-I)): < 3 nM

SMILES: Cc1c[nH]c2nccc(Oc3ccc(C[C@H](N)C(=O)N4CCN(C(=O)Cc5ccccc5)CC4)cc3F)c12 [Example 169, (S)-2-amino-3-(3-fluoro-4-((3-methyl-1H-pyrrolo[2,3-b]pyridin-4-yl)oxy)phenyl)-1-(4-(2-phenylacetyl-)piperazin-1-yl)propan-1-one]
- Ki (Rho kinase 2 (ROCK-II)): < 3 nM
- Ki (Rho kinase 1 (ROCK-I)): < 3 nM

SMILES: Cc1c[nH]c2nccc(Oc3ccc(CC(N)C(=O)N4CCC(c5ccncc5)C4)cc3F)c12 (racemic) [Example 66, 2-amino-3-(3-fluoro-4-((3-methyl-1H-pyrrolo[2,3-b]pyridin-4-yl)oxy)phenyl)-1-(3-(pyridin-4-yl)pyrrolidin-1-yl)propan-1-one]
- Ki (Rho kinase 2 (ROCK-II)): < 3 nM
- Ki (Rho kinase 1 (ROCK-I)): < 3 nM

SMILES: Cc1c[nH]c2nccc(Oc3ccc(CC(N)C(=O)N4CCN(c5ccccn5)CC4)cc3F)c12 (centres unmarked) [Example 80, 2-amino-3-(3-fluoro-4-((3-methyl-1H-pyrrolo[2,3-b]pyridin-4-yl)oxy)phenyl)-1-(4-(pyridin-2-yl)piperazin-1-yl)propan-1-one]
- Ki (Rho kinase 2 (ROCK-II)): < 3 nM
- Ki (Rho kinase 1 (ROCK-I)): < 3 nM

SMILES: Cc1c[nH]c2nccc(Oc3ccc(C[C@H](N)C(=O)N4CCN(c5ccccc5)CC4)cc3F)c12 [Example 5, (S)-2-amino-3-(3-fluoro-4-((3-methyl-1H-pyrrolo[2,3-b]pyridin-4-yl)oxy)phenyl)-1-(4-phenylpiperazin-1-yl)propan-1-one]
- Ki (Rho kinase 2 (ROCK-II)): < 3 nM
- Ki (Rho kinase 1 (ROCK-I)): < 3 nM

SMILES: Cc1c[nH]c2nccc(Oc3ccc(C[C@@H](N)C(=O)Nc4ccccc4)cc3)c12 [Example 138, (R)-2-amino-3-(4-((3-methyl-1H-pyrrolo[2,3-b]pyridin-4-yl)oxy)phenyl)-N-phenylpropanamide]
- Ki (Rho kinase 2 (ROCK-II)): 3 to 30 nM
- Ki (Rho kinase 1 (ROCK-I)): 3 to 30 nM

SMILES: CN1CCC(NC(=O)[C@H](N)Cc2ccc(Oc3ccnc4[nH]ccc34)cc2)CC1 [Example 104, (R)-3-(4-((1H-pyrrolo[2,3-b]pyridin-4-yl)oxy)phenyl)-2-amino-N-(1-methylpiperidin-4-yl)propanamide]
- Ki (Rho kinase 2 (ROCK-II)): > 30 nM
- Ki (Rho kinase 1 (ROCK-I)): > 30 nM

SMILES: N[C@@H](Cc1ccc(Oc2ccnc3[nH]ccc23)c(F)c1)C(=O)Nc1ccccc1 [Example 147, (S)-3-(4-((1H-pyrrolo[2,3-b]pyridin-4-yl)oxy)-3-fluorophenyl)-2-amino-N-phenylpropanamide]
- Ki (Rho kinase 2 (ROCK-II)): < 3 nM
- Ki (Rho kinase 1 (ROCK-I)): 3 to 30 nM

SMILES: Cc1c[nH]c2nccc(Oc3ccc(CC(N)C(=O)N4CCN(CCc5ccccc5)CC4)cc3F)c12 (centres unmarked) [Example 53, 2-amino-3-(3-fluoro-4-((3-methyl-1H-pyrrolo[2,3-b]pyridin-4-yl)oxy)phenyl)-1-(4-phenethylpiperazin-1-yl)propan-1-one]
- Ki (Rho kinase 2 (ROCK-II)): < 3 nM
- Ki (Rho kinase 1 (ROCK-I)): < 3 nM

SMILES: Cc1c[nH]c2nccc(Oc3ccc(C[C@H](N)C(=O)N4CCN(C(=O)c5cccc(CN(C)C)c5)CC4)cc3F)c12 [Example 173, (S)-2-amino-1-(4-(3-((dimethylamino)methyl)benzoyl)piperazin-1-yl)-3-(3-fluoro-4-((3-methyl-1H-pyrrolo[2,3-b]pyridin-4-yl)oxy)phenyl)propan-1-one]
- Ki (Rho kinase 2 (ROCK-II)): < 3 nM
- Ki (Rho kinase 1 (ROCK-I)): < 3 nM

SMILES: Cc1c[nH]c2nccc(Oc3ccc(CC(N)C(=O)N4CCN(Cc5ccccc5)CC4)cc3F)c12 (centres unmarked) [Example 132, 2-amino-1-(4-benzylpiperazin-1-yl)-3-(3-fluoro-4-((3-methyl-1H-pyrrolo[2,3-b]pyridin-4-yl)oxy)phenyl)propan-1-one]
- Ki (Rho kinase 2 (ROCK-II)): < 3 nM
- Ki (Rho kinase 1 (ROCK-I)): < 3 nM

SMILES: Cc1c[nH]c2nccc(Oc3ccc(C[C@H](N)C(=O)NC4(CO)CCN(C)CC4)cc3F)c12 [Example 37, (S)-2-amino-3-(3-fluoro-4-((3-methyl-1H-pyrrolo[2,3-b]pyridin-4-yl)oxy)phenyl)-N-(4-(hydroxymethyl)-1-methylpiperidin-4-yl)propanamide]
- Ki (Rho kinase 2 (ROCK-II)): < 3 nM
- Ki (Rho kinase 1 (ROCK-I)): < 3 nM

SMILES: Cc1c[nH]c2nccc(Oc3ccc(C[C@H](N)C(=O)N4CCN(Cc5cncn5C)CC4)cc3F)c12 [Example 158, (S)-2-amino-3-(3-fluoro-4--((3-methyl-1H-pyrrolo[2,3-b]pyridin-4-yl)oxy)phenyl)-1-(4-((1-methyl-1H-imidazol-5-yl)methyl)piperazin-1-yl)propan-1-one]
- Ki (Rho kinase 2 (ROCK-II)): < 3 nM
- Ki (Rho kinase 1 (ROCK-I)): < 3 nM

SMILES: O=C(NC(Cc1ccc(Oc2ccnc3[nH]ccc23)cc1)C(=O)Nc1ccccc1)C1CCNC1 (centres unmarked) [Example 179, N-(3-(4-((1H-pyrrolo[2,3-b]pyridin-4-yl)oxy)phenyl)-1-oxo-1-(phenylamino)propan-2-yl)pyrrolidine-3-carboxamide]
- Ki (Rho kinase 2 (ROCK-II)): 3 to 30 nM
- Ki (Rho kinase 1 (ROCK-I)): 3 to 30 nM

SMILES: COCc1c[nH]c2nccc(Oc3ccc(C[C@H](N)C(=O)NC4CCOCC4)cc3F)c12 [Example 214, (S)-2-amino-3-(3-fluoro-4-((3-(methoxymethyl)-1H-pyrrolo[2,3-b]pyridin-4-yl)oxy)phenyl)-N-(tetrahydro-2H-pyran-4-yl)propanamide]
- Ki (Rho kinase 2 (ROCK-II)): 3 to 30 nM
- Ki (Rho kinase 1 (ROCK-I)): 3 to 30 nM

SMILES: Cc1c[nH]c2nccc(Oc3ccc(C[C@H](N)C(=O)N4CCN(C(=O)N(C)C)CC4)cc3F)c12 [Example 23, (S)-4-(2-amino-3-(3-fluoro-4-((3-methyl-1H-pyrrolo[2,3-b]pyridin-4-yl)oxy)phenyl)propanoyl)-N,N-dimethylpiperazine-1-carboxamide]
- Ki (Rho kinase 2 (ROCK-II)): < 3 nM
- Ki (Rho kinase 1 (ROCK-I)): < 3 nM

SMILES: Cc1c[nH]c2nccc(Oc3ccc(CC(N)C(=O)N4CCN(CC5CC5)CC4)cc3F)c12 (centres unmarked) [Example 58, 2-amino-1-(4-(cyclopropylmethyl)piperazin-1-yl)-3-(3-fluoro-4-((3-methyl-1H-pyrrolo[2,3-b]pyridin-4-yl)oxy)phenyl)propan-1-one]
- Ki (Rho kinase 2 (ROCK-II)): < 3 nM
- Ki (Rho kinase 1 (ROCK-I)): < 3 nM

SMILES: Cc1c[nH]c2nccc(Oc3ccc(C[C@H](N)C(=O)NCc4ccccc4)cc3)c12 [Example 135, (S)-2-amino-N-benzyl-3-(4-((3-methyl-1H-pyrrolo[2,3-b]pyridin-4-yl)oxy)phenyl)propanamide]
- Ki (Rho kinase 2 (ROCK-II)): < 3 nM
- Ki (Rho kinase 1 (ROCK-I)): < 3 nM

SMILES: Cc1c[nH]c2nccc(Oc3ccc(C[C@H](N)C(=O)N4CCC(CN(C)C)CC4)cc3F)c12 [Example 45, (S)-2-amino-1-(4-((dimethylamino)methyl)piperidin-1-yl)-3-(3-fluoro-4-((3-methyl-1H-pyrrolo[2,3-b]pyridin-4-yl)oxy)phenyl)propan-1-one]
- Ki (Rho kinase 2 (ROCK-II)): < 3 nM
- Ki (Rho kinase 1 (ROCK-I)): < 3 nM

— patent publication US10501461B2, “Tyrosine amide derivatives as Rho-kinase inhibitors” (CHIESI FARMACEUTICI S.P.A., priority 2017, dated 2019)
